From ChEMBL document CHEMBL1201862, “PubChem BioAssay data set” (2004)
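Interpolation was linear, between the two tested concentrations surrounding the appropriate level; five concentrations were tested over 48 hours in 96-well plates. GI50 marks 50% less growth.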 Activity calls are given as the source filed them. Cut-off read from the data, not from the text of the source: active = GI50 up to about 1.1 µM and inactive = higher.

Assays:
Assay in all cases: growth of human tumour cells (NCI), 48 h
HOP-62 = system: HOP-62
SNB-19 = system: SNB-19
HOP-92 = system: HOP-92
Malme-3M = system: Malme-3M
A498 = system: A498
SK-OV-3 = system: SK-OV-3
NCI-H226 = system: NCI-H226
SK-MEL-5 = system: SK-MEL-5
UACC-257 = system: UACC-257
SN12C = system: SN12C
SF-539 = system: SF-539
U-251 = system: U-251
CAKI-1 = system: CAKI-1
OVCAR-5 = system: OVCAR-5
SNB-75 = system: SNB-75
NCI-H522 = system: NCI-H522
786-0 = system: 786-0
HL-60 = system: HL-60
HT-29 = system: HT-29

Row | SMILES | GI50 (HOP-62) | GI50 (SNB-19) | GI50 (HOP-92) | GI50 (Malme-3M) | GI50 (A498) | GI50 (SK-OV-3) | GI50 (NCI-H226) | GI50 (SK-MEL-5) | GI50 (UACC-257) | GI50 (SN12C) | GI50 (SF-539) | GI50 (U-251) | GI50 (CAKI-1) | GI50 (OVCAR-5) | GI50 (SNB-75) | GI50 (NCI-H522) | GI50 (786-0) | GI50 (HL-60) | GI50 (HT-29)
1 | Cc1cn(C2CC(O)C(Cn3nncc3Cn3ncc(=O)[nH]c3=O)O2)c(=O)[nH]c1=O (stereo not given) | > 100 µM (inactive) | > 100 µM (inactive) | > 100 µM (inactive) | > 100 µM (inactive) | > 100 µM (inactive) | 77.1 µM (inactive) | > 100 µM (inactive) | > 100 µM (inactive) | > 100 µM (inactive) | > 100 µM (inactive) | > 100 µM (inactive) | > 100 µM (inactive) | > 100 µM (inactive) | > 100 µM (inactive) |  |  |  |  | 
2 | NC1CCCCC1.O=C(O)C1(P(=O)(O)O)CC1 | > 100 µM (inactive) | > 100 µM (inactive) |  | > 100 µM (inactive) | > 100 µM (inactive) | > 100 µM (inactive) |  | > 100 µM (inactive) | > 100 µM (inactive) | > 100 µM (inactive) | > 100 µM (inactive) | > 100 µM (inactive) | > 100 µM (inactive) |  | 92.3 µM (inactive) | > 100 µM (inactive) | > 100 µM (inactive) | > 100 µM (inactive) | 
3 | CC(=O)OC1COC(n2c(=S)n(-c3ccc(C)cc3)c(=O)c3ccccc32)C(OC(C)=O)C1OC(C)=O (stereo not given) | > 100 µM (inactive) | > 100 µM (inactive) | 45.8 µM (inactive) | > 100 µM (inactive) | > 100 µM (inactive) | > 100 µM (inactive) | > 100 µM (inactive) | > 100 µM (inactive) | > 100 µM (inactive) | > 100 µM (inactive) | > 100 µM (inactive) | > 100 µM (inactive) | > 100 µM (inactive) | > 100 µM (inactive) | 63.2 µM (inactive) | > 100 µM (inactive) | > 100 µM (inactive) |  | > 100 µM (inactive)
4 | CC1(C)CC2=NO[Se]3=C2C(=NO3)C1 | 2.99 µM (inactive) | 4.08 µM (inactive) | 2.63 µM (inactive) |  | 4.3 µM (inactive) | 4.52 µM (inactive) | 3.76 µM (inactive) | 1.81 µM (inactive) | 2.17 µM (inactive) | 4.43 µM (inactive) | 2.15 µM (inactive) | 3.69 µM (inactive) | 3.65 µM (inactive) | 5.11 µM (inactive) | 2.68 µM (inactive) | 1.9 µM (inactive) | 1.94 µM (inactive) | 2.22 µM (inactive) | 0.929 µM (active)
5 | Cc1[nH]c2ccccc2c1-c1n[nH]c(=O)c2ccccc12 | 6.56 µM (inactive) |  |  | 22.3 µM (inactive) | 19.8 µM (inactive) | 25.1 µM (inactive) | 18.7 µM (inactive) | 15.5 µM (inactive) | 25.1 µM (inactive) |  | 24.3 µM (inactive) | 31.5 µM (inactive) | 13.4 µM (inactive) | 46.5 µM (inactive) | 15.3 µM (inactive) |  | 27 µM (inactive) | 7.82 µM (inactive) | 24.1 µM (inactive)
6 | CC(C)OC(=O)c1cccnc1/C=N/O | > 100 µM (inactive) | > 100 µM (inactive) |  | > 100 µM (inactive) | > 100 µM (inactive) | > 100 µM (inactive) | > 100 µM (inactive) | > 100 µM (inactive) | > 100 µM (inactive) | > 100 µM (inactive) | > 100 µM (inactive) | > 100 µM (inactive) | > 100 µM (inactive) | > 100 µM (inactive) | > 100 µM (inactive) | > 100 µM (inactive) | > 100 µM (inactive) | > 100 µM (inactive) | > 100 µM (inactive)
7 | CC1(C)CC(=O)C2=C(C1)NC(=S)C(C#N)C2c1ccccc1 (stereo not given) | > 100 µM (inactive) | > 100 µM (inactive) | > 100 µM (inactive) | > 100 µM (inactive) |  | > 100 µM (inactive) | > 100 µM (inactive) | > 100 µM (inactive) | > 100 µM (inactive) | > 100 µM (inactive) | > 100 µM (inactive) | > 100 µM (inactive) | > 100 µM (inactive) | > 100 µM (inactive) | > 100 µM (inactive) | > 100 µM (inactive) | > 100 µM (inactive) | > 100 µM (inactive) | > 100 µM (inactive)
8 | S=C1ON=C(c2ccccc2)/C1=C/Nc1ccccc1 |  | > 100 µM (inactive) |  | 77.1 µM (inactive) | 5.69 µM (inactive) | > 100 µM (inactive) |  | > 100 µM (inactive) | > 100 µM (inactive) | > 100 µM (inactive) | 97.7 µM (inactive) | > 100 µM (inactive) | > 100 µM (inactive) | > 100 µM (inactive) | > 100 µM (inactive) | > 100 µM (inactive) | > 100 µM (inactive) | > 100 µM (inactive) | > 100 µM (inactive)
9 | O=C1NC(N/N=C/c2ccccc2)=N/C1=C\c1ccco1 | 19.8 µM (inactive) | 36.5 µM (inactive) | 11.3 µM (inactive) | > 100 µM (inactive) | > 100 µM (inactive) | 54.2 µM (inactive) | 35.5 µM (inactive) | 45.9 µM (inactive) | > 100 µM (inactive) | 35.6 µM (inactive) |  | 24.8 µM (inactive) | 37.3 µM (inactive) | > 100 µM (inactive) | 47.8 µM (inactive) | 26.1 µM (inactive) | 22.3 µM (inactive) | > 100 µM (inactive) | 51.9 µM (inactive)
10 | CNC(C)(C)Cc1ccc(Cl)cc1 | > 100 µM (inactive) |  |  | > 100 µM (inactive) | > 100 µM (inactive) | > 100 µM (inactive) |  | > 100 µM (inactive) | > 100 µM (inactive) | > 100 µM (inactive) | > 100 µM (inactive) | > 100 µM (inactive) | > 100 µM (inactive) |  | > 100 µM (inactive) | > 100 µM (inactive) | > 100 µM (inactive) |  | > 100 µM (inactive)
11 | CC(C)C(C(=O)O)N(CC1(O)OCC(O)C(O)C1O)N=O (stereo not given) | > 100 µM (inactive) |  | > 100 µM (inactive) | > 100 µM (inactive) | > 100 µM (inactive) | > 100 µM (inactive) |  | > 100 µM (inactive) | > 100 µM (inactive) |  | > 100 µM (inactive) | > 100 µM (inactive) |  | > 100 µM (inactive) | > 100 µM (inactive) | > 100 µM (inactive) | > 100 µM (inactive) | > 100 µM (inactive) | > 100 µM (inactive)
12 | C#CCOC(=O)C(N)C(C)O (stereo not given) | > 100 µM (inactive) |  | > 100 µM (inactive) | > 100 µM (inactive) | > 100 µM (inactive) | > 100 µM (inactive) | > 100 µM (inactive) | > 100 µM (inactive) | > 100 µM (inactive) | > 100 µM (inactive) |  | > 100 µM (inactive) | > 100 µM (inactive) | > 100 µM (inactive) | > 100 µM (inactive) | > 100 µM (inactive) | > 100 µM (inactive) | > 100 µM (inactive) | > 100 µM (inactive)
13 | CSc1nc2c(nc(N)n2C2OC(COC(C)=O)C(OC(C)=O)C(OC(C)=O)C2OC(C)=O)c(=O)n1C (stereo not given) | > 100 µM (inactive) | > 100 µM (inactive) | > 100 µM (inactive) | > 100 µM (inactive) | > 100 µM (inactive) | > 100 µM (inactive) | > 100 µM (inactive) | > 100 µM (inactive) | > 100 µM (inactive) | > 100 µM (inactive) | > 100 µM (inactive) | > 100 µM (inactive) | > 100 µM (inactive) | > 100 µM (inactive) | > 100 µM (inactive) |  | > 100 µM (inactive) | > 100 µM (inactive) | > 100 µM (inactive)
14 | Clc1ccc2c(c1)-c1c3c(nn1-c1ccccc1)-c1ccccc1SC3O2 (stereo not given) | > 100 µM (inactive) |  | 35.7 µM (inactive) | > 100 µM (inactive) | > 100 µM (inactive) | > 100 µM (inactive) |  | > 100 µM (inactive) | > 100 µM (inactive) |  | > 100 µM (inactive) | > 100 µM (inactive) |  | > 100 µM (inactive) | 82.6 µM (inactive) | 29 µM (inactive) | > 100 µM (inactive) | 79.4 µM (inactive) | > 100 µM (inactive)
15 | CC(=O)OC(Cn1cncn1)(Cn1cncn1)c1ccc(Cl)cc1Cl | > 100 µM (inactive) | > 100 µM (inactive) | > 100 µM (inactive) |  | > 100 µM (inactive) | > 100 µM (inactive) | > 100 µM (inactive) | > 100 µM (inactive) | > 100 µM (inactive) |  | > 100 µM (inactive) | > 100 µM (inactive) | > 100 µM (inactive) | > 100 µM (inactive) | > 100 µM (inactive) | > 100 µM (inactive) | > 100 µM (inactive) | > 100 µM (inactive) | > 100 µM (inactive)
16 | CCC/C=C/C=C/C1CC(O)C(O)C(=O)C1CO (stereo not given) |  | > 100 µM (inactive) | > 100 µM (inactive) |  |  | > 100 µM (inactive) | > 100 µM (inactive) | > 100 µM (inactive) | > 100 µM (inactive) | > 100 µM (inactive) | > 100 µM (inactive) | > 100 µM (inactive) | > 100 µM (inactive) | > 100 µM (inactive) | > 100 µM (inactive) | 55.2 µM (inactive) | > 100 µM (inactive) | 48.2 µM (inactive) | > 100 µM (inactive)
17 | CN(C)CCN1C(=O)c2cccc3cc(N)cc(c23)C1=O [AMONAFIDE] | 2.43 µM (inactive) | 4.21 µM (inactive) | 3.23 µM (inactive) | 3.31 µM (inactive) | 3.58 µM (inactive) | 4.42 µM (inactive) | 2.4 µM (inactive) | 2.9 µM (inactive) | 4.36 µM (inactive) | 3.19 µM (inactive) | 3.71 µM (inactive) | 3.64 µM (inactive) |  | 4.83 µM (inactive) | 5.33 µM (inactive) | 3.71 µM (inactive) | 2.2 µM (inactive) | 2.24 µM (inactive) | 3.3 µM (inactive)
